Reference: paper PMC7570662, “In Vivo Pharmacokinetic Analysis Utilizing Non-Targeted and Targeted Mass Spectrometry and In Vitro Assay against Transient Receptor Potential Channels of Maobushisaishinto and Its Constituent Asiasari Radix” (Molecules, 2020)
Like-named read-outs stand apart in the source and are kept apart here.

Experiments:
human TRPA1 = target: T1, human TRPA1 (Homo sapiens, UniProt O75762); experiment: Ca2+ influx assay in TRPA1-expressing T-REx-293 cells; type: cell-based; conditions: for activation at 10 µM: T-REx-293, read-out: % of Activation Compared to Positive Control against Each Subfamily of TRP Channel TRPA1; for EC50: dose-response test, Ca2+ influx, read-out: EC50 Value against TRPA1
T1 construct: Each full-length human TRPA1, TRPV1, TRPV4, and TRPM8 coding regions were introduced into a pcDNA4/TO vector; expressed in transfected cells; host or cells: T-REx-293 cells (tetracycline-induced, pcDNA4/TO vector)
T1 sequence (O75762 whole entry): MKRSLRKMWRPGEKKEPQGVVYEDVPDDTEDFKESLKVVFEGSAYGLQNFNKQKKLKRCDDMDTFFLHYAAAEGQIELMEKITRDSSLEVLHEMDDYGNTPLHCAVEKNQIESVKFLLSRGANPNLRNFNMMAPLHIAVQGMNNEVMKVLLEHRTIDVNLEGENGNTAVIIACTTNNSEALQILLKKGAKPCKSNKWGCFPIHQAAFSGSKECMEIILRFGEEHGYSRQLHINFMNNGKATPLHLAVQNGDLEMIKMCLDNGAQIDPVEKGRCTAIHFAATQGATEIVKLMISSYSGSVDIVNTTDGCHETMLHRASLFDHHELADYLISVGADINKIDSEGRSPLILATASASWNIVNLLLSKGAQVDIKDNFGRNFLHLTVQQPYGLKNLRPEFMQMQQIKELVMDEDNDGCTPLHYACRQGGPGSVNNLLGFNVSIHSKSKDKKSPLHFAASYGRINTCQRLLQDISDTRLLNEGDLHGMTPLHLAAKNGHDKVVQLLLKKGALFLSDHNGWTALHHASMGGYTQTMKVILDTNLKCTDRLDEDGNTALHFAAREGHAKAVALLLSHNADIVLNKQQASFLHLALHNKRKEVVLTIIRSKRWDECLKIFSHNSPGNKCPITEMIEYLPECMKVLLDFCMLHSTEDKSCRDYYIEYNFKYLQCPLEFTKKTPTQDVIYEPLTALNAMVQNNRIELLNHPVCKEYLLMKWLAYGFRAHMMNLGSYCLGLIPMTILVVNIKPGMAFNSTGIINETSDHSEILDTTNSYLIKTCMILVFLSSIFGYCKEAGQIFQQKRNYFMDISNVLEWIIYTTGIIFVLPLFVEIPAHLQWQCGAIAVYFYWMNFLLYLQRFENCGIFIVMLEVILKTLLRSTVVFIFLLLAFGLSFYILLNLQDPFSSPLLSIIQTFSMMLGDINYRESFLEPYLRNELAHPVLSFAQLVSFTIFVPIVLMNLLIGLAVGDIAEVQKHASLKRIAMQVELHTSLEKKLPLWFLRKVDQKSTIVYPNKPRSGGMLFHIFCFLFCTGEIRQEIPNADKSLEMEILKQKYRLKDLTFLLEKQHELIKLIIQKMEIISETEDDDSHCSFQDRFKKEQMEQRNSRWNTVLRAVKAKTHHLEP
Procedure: (§1) Each full-length human TRPA1, TRPV1, TRPV4, and TRPM8 coding regions were introduced into a pcDNA4/TO vector (Thermo Fisher Scientific, Waltham, MA, USA) and transfected into T-REx-293 cells (Thermo Fisher Scientific) to obtain stable cell lines expressing human TRPA1, TRPV1, TRPV4, and TRPM8. Cells were cultured in DMEM with 10% FBS, 4 mmol/L L-glutamine, and penicillin/streptomycin.
(§2) Cells were suspended in medium with 1 µg/mL tetracycline and seeded in poly-D-lysine coated 96-well plate at 2.5 × 10^4 cells/well. After overnight culture, the cells were used for Ca^2+ influx assay.
(§3) The Ca^2+ influx assay was performed using a FLIPR Calcium 5 Assay Kit (Molecular Devices, Sunnyvale, CA, USA) according to previously reported methods with minor modifications. In brief, cells were incubated with 80 µL Ca^2+-chelating dye dissolved in assay buffer at pH 7.4 (Hanks’ Balanced Salt Solution containing 20 mmol/L of N-2-hydroxyethylpiperazine-N’-2-ethanesulfonic acid) at room temperature for 30 min. The plates were assayed using a FlexStation 3 Microplate Reader (Molecular Devices). The fluorescence intensity was traced entirely for 80 s. The baseline of fluorescence was measured for 20 s before adding 20 µL of test compound (final concentration, 10 µmol/L). The response was expressed as percentage activation using the relative fluorescence units (RFU) (% activation = 100 × ((RFUmax − RFUbaseline)/RFUbaseline) − 100). Furthermore, the activities of each test compound against several subfamilies of TRP channels were represented as the relative enhancement of Ca^2+ influx of each positive control, indicated as follows: 20 µmol/L of allyl isothiocyanate (an agonist of TRPA1), 2 µmol/L of capsaicin (an agonist of TRPV1), 4 µmol/L of GSK1016790A (an agonist of TRPV4), and 20 µmol/L of icilin (an agonist of TRPM8). The dose–response curve was fitted to the sigmoidal dose-response equation (top, the max response of each compound), and EC50 values were calculated using GraphPad Prism 7 software (GraphPad, San Diego, CA, USA).

human TRPM8 = target: T2, human TRPM8 (Homo sapiens, UniProt Q7Z2W7); experiment: Ca2+ influx assay in TRPM8-expressing T-REx-293 cells; type: cell-based; conditions: 10 µmol/L test compound, relative to 20 µmol/L icilin; for activation at 10 µM: T-REx-293, read-out: % of Activation Compared to Positive Control against Each Subfamily of TRP Channel TRPM8
T2 construct: Each full-length human TRPA1, TRPV1, TRPV4, and TRPM8 coding regions were introduced into a pcDNA4/TO vector; expressed in transfected cells; host or cells: T-REx-293 cells (tetracycline-induced, pcDNA4/TO vector)
T2 sequence (Q7Z2W7 whole entry): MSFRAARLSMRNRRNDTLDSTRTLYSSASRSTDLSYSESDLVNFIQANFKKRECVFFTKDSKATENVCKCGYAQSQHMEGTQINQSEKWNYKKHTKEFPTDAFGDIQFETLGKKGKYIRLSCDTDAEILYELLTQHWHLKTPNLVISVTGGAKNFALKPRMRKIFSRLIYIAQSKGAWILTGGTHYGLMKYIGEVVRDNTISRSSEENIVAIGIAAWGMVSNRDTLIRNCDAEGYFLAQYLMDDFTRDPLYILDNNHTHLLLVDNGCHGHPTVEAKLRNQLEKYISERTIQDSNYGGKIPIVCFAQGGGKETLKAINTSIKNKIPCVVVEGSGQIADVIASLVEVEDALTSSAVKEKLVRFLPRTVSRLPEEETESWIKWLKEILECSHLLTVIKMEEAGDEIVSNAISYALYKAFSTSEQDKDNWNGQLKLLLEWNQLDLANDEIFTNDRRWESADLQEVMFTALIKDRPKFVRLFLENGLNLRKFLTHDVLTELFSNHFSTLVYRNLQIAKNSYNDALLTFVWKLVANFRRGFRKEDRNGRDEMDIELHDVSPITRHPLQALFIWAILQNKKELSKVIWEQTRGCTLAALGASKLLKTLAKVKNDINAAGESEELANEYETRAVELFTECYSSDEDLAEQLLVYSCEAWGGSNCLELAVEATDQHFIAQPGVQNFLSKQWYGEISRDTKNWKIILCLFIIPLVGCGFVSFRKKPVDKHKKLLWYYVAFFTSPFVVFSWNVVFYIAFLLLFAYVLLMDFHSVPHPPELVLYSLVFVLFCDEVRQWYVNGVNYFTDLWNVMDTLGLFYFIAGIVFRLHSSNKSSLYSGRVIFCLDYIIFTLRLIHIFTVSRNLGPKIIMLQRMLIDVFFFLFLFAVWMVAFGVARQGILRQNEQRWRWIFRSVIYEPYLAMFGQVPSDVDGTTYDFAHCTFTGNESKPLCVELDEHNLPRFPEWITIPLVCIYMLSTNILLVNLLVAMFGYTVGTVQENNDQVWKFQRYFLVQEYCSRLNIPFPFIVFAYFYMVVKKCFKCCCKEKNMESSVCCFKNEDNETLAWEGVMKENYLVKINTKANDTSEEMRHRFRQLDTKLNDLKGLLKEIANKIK
Procedure: as §1, §2, §3

human TRPV1 = target: T3, human TRPV1 (Homo sapiens, UniProt Q8NER1); experiment: Ca2+ influx assay in TRPV1-expressing T-REx-293 cells; type: cell-based; conditions: 10 µmol/L test compound, relative to 2 µmol/L capsaicin; for activation at 10 µM: T-REx-293, read-out: % of Activation Compared to Positive Control against Each Subfamily of TRP Channel TRPV1
T3 construct: Each full-length human TRPA1, TRPV1, TRPV4, and TRPM8 coding regions were introduced into a pcDNA4/TO vector; expressed in transfected cells; host or cells: T-REx-293 cells (tetracycline-induced, pcDNA4/TO vector)
T3 sequence (Q8NER1 whole entry): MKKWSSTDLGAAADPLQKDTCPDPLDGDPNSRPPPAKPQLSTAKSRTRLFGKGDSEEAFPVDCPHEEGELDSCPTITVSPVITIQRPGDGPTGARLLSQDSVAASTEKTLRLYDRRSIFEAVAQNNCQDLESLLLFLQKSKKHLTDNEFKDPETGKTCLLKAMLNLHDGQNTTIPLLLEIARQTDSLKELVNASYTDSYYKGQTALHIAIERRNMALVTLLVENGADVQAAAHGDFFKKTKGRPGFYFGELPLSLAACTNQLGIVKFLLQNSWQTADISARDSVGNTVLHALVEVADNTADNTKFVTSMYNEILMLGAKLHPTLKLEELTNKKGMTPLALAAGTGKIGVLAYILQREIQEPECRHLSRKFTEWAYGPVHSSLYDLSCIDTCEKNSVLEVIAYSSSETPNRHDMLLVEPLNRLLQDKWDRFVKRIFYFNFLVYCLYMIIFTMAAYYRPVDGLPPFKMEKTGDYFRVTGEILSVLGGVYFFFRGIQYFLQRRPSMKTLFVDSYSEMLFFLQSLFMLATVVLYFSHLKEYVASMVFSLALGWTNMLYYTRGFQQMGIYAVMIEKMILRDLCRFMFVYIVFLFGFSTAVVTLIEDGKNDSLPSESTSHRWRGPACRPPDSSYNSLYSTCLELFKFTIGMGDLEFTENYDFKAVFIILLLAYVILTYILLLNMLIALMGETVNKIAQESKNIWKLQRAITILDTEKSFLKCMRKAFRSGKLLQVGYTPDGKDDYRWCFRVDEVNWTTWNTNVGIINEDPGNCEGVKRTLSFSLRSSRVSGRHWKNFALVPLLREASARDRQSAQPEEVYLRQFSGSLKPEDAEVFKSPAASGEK
Procedure: as §1, §2, §3

[1] = Quantitative targeted LC-MS/MS pharmacokinetics of AR ingredients in rat plasma after oral MBST; type: in vivo
Procedure: Seven-week-old male Sprague-Dawley rats were purchased from Charles River Laboratories (Yokohama, Japan) and Japan SLC (Hamamatsu, Japan). The animals were housed under a temperature of 23 °C ± 3 °C and relative humidity of 50% ± 20%, with 12-h/12-h light/dark cycle and allowed free access to water and standard laboratory food (MF, Oriental Yeast Co., Ltd., Tokyo, Japan). The animals were used in experiments following habituation for several days.
Extract powders of AR or MBST were suspended in distilled water and orally administered to rats having fasted for approximately 16 h. The dose of AR was set at 2 g/kg, and the MBST doses were set at 1 and 2 g/kg. 1 g/kg MBST contained 578 µg/kg, 147 µg/kg, 226 µg/kg, 426 µg/kg asarinin, sesamin, methyl kakuol, and amide A, respectively. The doses were chosen based on a previous pharmacological study of MBST using rats.
Blood samples were centrifuged at 1700× g at 4 °C for 15 min to obtain plasma, of which samples were then stored at ≤−75 °C until analysis.
To quantify the plasma concentration of the AR components identified by the non-targeted analysis, the plasma samples at 0–24 h after MBST administration (1 or 2 g/kg) were supplied to targeted LC-MS/MS analysis in SRM mode with electrospray ionization.
For the quantification of methyl kakuol, amide A, asarinin, and sesamin in plasma, 100 µL of MBST-treated rat plasma was mixed with 20 µL of methanol (as the vehicle of the working solution described below) and 20 µL of internal standard niflumic acid (2 or 20 ng/mL). To prepare the calibration curve, the same volumes of blank plasma and various concentrations of working solution (final plasma concentration, 0.02–200 ng/mL) were used instead of the MBST-treated rat plasma and methanol. Finally, 500 µL of methanol was added for deproteinization. The mixture was centrifuged at 7000× g at 4 °C for 5 min. The supernatant was dried using a centrifugal evaporator. The dried residue was dissolved in 60 or 80 μL of the initial LC mobile phase which was composed of 5 mmol/L ammonium acetate in water/methanol (70/30, v/v), and then, a 5 or 10 μL aliquot was injected into the LC-MS/MS system. The injected sample was chromatographically separated using a YMC-Pack ODS-AQ column (2.0 ×150 mm I.D., 3-μm particle size; GL Sciences, Tokyo, Japan) at 30 °C. The mobile phase consisted of solution A (5 mmol/L ammonium acetate) as well as solution B (methanol), with a gradient of solution B (30%, 0 min; 70%, 25 min; 95%, 25.01–30 min; 30%, 30.01–35 min; v/v) at a flow rate of 0.3 mL/min. In brief, the compounds were analyzed using optimal MS/MS parameters as follows: methyl kakuol (m/z 209.056/176.1), amide A (m/z 248.174/57.1), asarinin (m/z 372.123/173.1), and sesamin (m/z 372.118/233.1). The calibration ranges for methyl kakuol, amide A, asarinin, and sesamin were 0.5–100 ng/mL, 0.5–200 ng/mL, 0.1–200 ng/mL, 0.1–200 ng/mL, respectively.
The AR ingredient levels in the plasma are presented as the mean + standard deviation. Pharmacokinetic parameters of plasma AR ingredients, such as the Cmax, AUC0-last, were calculated by non-compartmental analysis using the Phoenix WinNonlin software (Certara L.P., St. Louis, MO, USA). The concentration data were pooled per each time point; then, the mean concentration–time data were subjected to the non-compartmental analysis.

[2] = system: LPS-induced NO production in BV-2 microglial cells; parameters: method as in PMID 18293448; conditions: cited from earlier work
[3] = 10 µmol/L test compound, relative to 20 µmol/L allyl isothiocyanate
[4] = male, Sprague-Dawley, rat, in vivo, po, 1 g/kg
[5] = male, Sprague-Dawley, rat, in vivo, po, 2 g/kg

SMILES	activation at 10 µM (human TRPA1; [3])	EC50 (human TRPA1)	activation at 10 µM (human TRPM8)	activation at 10 µM (human TRPV1)	AUC(0-t) [1, 4]	Cmax [1, 4]	Tmax [1, 4]	half-life [1, 4]	k el [1, 4]	AUC(0-t) [1, 5]	Cmax [1, 5]	Tmax [1, 5]	half-life [1, 5]	k el [1, 5]	Effect on LPS-induced NO production in BV-2 microglial cells [2]	other results
c1cc2c(cc1[C@H]1OC[C@H]3[C@@H]1CO[C@H]3c1ccc3c(c1)OCO3)OCO2 [Asarinin, (−)-Asarinin]	106%	3100 nM	1.4%	-0.4%	16.3 ng·h/mL	8.42 ng/mL	15 min	91.2 min	0.000127 s⁻¹	38.6 ng·h/mL	14.7 ng/mL	15 min	176 min	6.58e-05 s⁻¹	–	–
c1cc2c(cc1[C@H]1OC[C@H]3[C@@H]1CO[C@@H]3c1ccc3c(c1)OCO3)OCO2 [Sesamin]	106%	2300 nM	-0.8%	-0.1%	11.9 ng·h/mL	5.63 ng/mL	30 min	97.8 min	0.000118 s⁻¹	28.7 ng·h/mL	9.44 ng/mL	15 min	179 min	6.44e-05 s⁻¹	inhibitory effect	–
CCC(=O)c1cc2c(cc1OC)OCO2 [Methyl kakuol]	–	270 nM	–	–	–	–	–	–	–	–	–	–	–	–	–	% of Activation Compared to Positive Control against Each Subfamily of TRP Channel TRPA1 (human TRPA1; [3]): 49%; % of Activation Compared to Positive Control against Each Subfamily of TRP Channel TRPM8 (human TRPM8): 2.8%; % of Activation Compared to Positive Control against Each Subfamily of TRP Channel TRPV1 (human TRPV1): 0.1%; AUC0-last ([1]; rat plasma, oral MBST 1 g/kg): 22.5 ng·h/mL; Cmax ([1]; rat plasma, oral MBST 1 g/kg): 26.7 ng/mL; Tmax ([1]; rat plasma, oral MBST 1 g/kg): 30 min; k el ([1]; rat plasma, oral MBST 1 g/kg): 0.000425 s⁻¹; t1/2 ([1]; rat plasma, oral MBST 1 g/kg): 27.1 min; AUC0-last ([1]; rat plasma, oral MBST 2 g/kg): 214 ng·h/mL; Cmax ([1]; rat plasma, oral MBST 2 g/kg): 98.2 ng/mL; Tmax ([1]; rat plasma, oral MBST 2 g/kg): 60 min; k el ([1]; rat plasma, oral MBST 2 g/kg): 0.000153 s⁻¹; t1/2 ([1]; rat plasma, oral MBST 2 g/kg): 75.6 min
C/C=C/C=C\CC/C=C/C=C/C(=O)NCC(C)C [Amide A, (2E,4E,8Z,10E)-N-isobutyl-2,4,8,10-dodecatetraenamide]	96%	470 nM	6.1%	0.7%	–	–	–	–	–	–	–	–	–	–	inhibitory effect	AUC(0-t) ([1]; male, Sprague-Dawley, rat plasma, oral MBST 1 g/kg, read-out: AUC0-last): 4.87 ng·h/mL; Cmax ([1]; male, Sprague-Dawley, rat plasma, oral MBST 1 g/kg, read-out: Cmax): 4.08 ng/mL; k el ([1]; male, Sprague-Dawley, rat plasma, oral MBST 1 g/kg, read-out: kel (converted)): 0.000211 s⁻¹; half-life ([1]; male, Sprague-Dawley, rat plasma, oral MBST 1 g/kg, read-out: t1/2 (converted)): 54.7 min; Tmax ([1]; male, Sprague-Dawley, rat plasma, oral MBST 1 g/kg, read-out: tmax): 30 min; AUC(0-t) ([1]; male, Sprague-Dawley, rat plasma, oral MBST 2 g/kg, read-out: AUC0-last): 18.4 ng·h/mL; Cmax ([1]; male, Sprague-Dawley, rat plasma, oral MBST 2 g/kg, read-out: Cmax): 6.07 ng/mL; k el ([1]; male, Sprague-Dawley, rat plasma, oral MBST 2 g/kg, read-out: kel (converted)): 6.58e-05 s⁻¹; half-life ([1]; male, Sprague-Dawley, rat plasma, oral MBST 2 g/kg, read-out: t1/2 (converted)): 175 min; Tmax ([1]; male, Sprague-Dawley, rat plasma, oral MBST 2 g/kg, read-out: tmax): 15 min
